Values after ≈ are worked out from the molar mass of the structure shown. Read-outs that look alike come from different tables or passages of the source.
Legend:
[1] = Equilibrium solubility assessment in biorelevant media; type: physicochemical; details: thermodynamic from solid, room temperature
Procedure: Compound's equilibrium solubility was measured at 4 h room temperature in four biologically relevant fluids: Fasted State-(Simulated Intestinal Fluid (FaSSIF), Fed State Simulated IntestinalFluid (FeSSIF), Simulated Gastric Fluid (SGF) and Phosphate Buffered Saline (PBS).
Organic solvents of HPLC grade were used. Ultra pure water (Milli-Q grade) was used. Buffers were prepared with ultra pure water and filtered using 0.45 μ nylon filters.
Determination of equilibrium solubility (assuming chemical stability in the desired solvent is not a problem).
a) 1 mg of solid compound was weighted in one 4 mL glass vial and 1 mL of the corresponding medium freshly prepared (SGF, FaSSIF, FeSSIF or PBS) was added. All these samples were prepared by duplicate.
b) The samples were stirred (roller mixer) for 4 hr at room temperature. If required, additional solid compound (0.1 mg) was added to maintain excess of it (saturated solutions).
c) After 4 hours, the samples were centrifuged (10000 rpm, 10 min.) and the supernatants were transfer to an HPLC vial and analysed by LC-MS (previous dilution with mobile phase when needed).
d) The pH of the final solution in each sample was measured with a pH-meter (WTW pH330i and a pH-electrode Sentix 41).
All supernatants were analysed by LC-MS. Quantification of those samples was carried out against calibration curves obtained from 1 mg/mL DMSO (Aldrich cat. ref.: 27685-5) stock solutions, by dilution with the mobile phase used in the chromatography. Depending on the solubility range, U.V. (1 μg/mL to 100 μg/mL) or MS (1 μg/mL to 1 ng/mL) detector were used in the quantification.
The analysis of all LC-MS data was performed with MassLynx 3.4 software and Analyst 1.4.2. Statistical and graphic analysis of data was performed using Microsoft Excel. The concentration (μM) and solubility (μg/ml) for each compound was calculated using the peak areas from the sample and those from the calibration curve.

P. falciparum = P. falciparum in vivo efficacy assay (P. falciparum mouse model); parameters: species or system Plasmodium falciparum; details: for AUCED90: area under the concentration-time curve at ED90, P. falciparum mouse model; for ED90: dose that eradicates 90 per cent of parasitemia, NOD-scid IL2R_null mice engrafted with human erythrocytes
Procedure: P. Falciparum In Vivo Efficacy Assay.
Antimalarial in vivo efficacy was determined using the P. falciparum mouse model following the procedure described in: Jimenez-Diaz, M. B., Mulet, T., Viera, S., Gómez, V., Garuti, H., Ibañez, J., Alvarez-Doval, A., Shlutz, D. L., Martinez, A., Improved Murine Model Of Malaria Using Plasmodium falciparum (Competent Strains and Non-Myelodepleted NOD-scid IL2R_null
Mice Engrafted with Human Erythrocytes) Antimicrob. Agents Chemother 2009, 53 (10), 4533-4536

[2] = tested on: P. falciparum infected erythrocytes; test: P. falciparum growth inhibition assay ([3H]hypoxanthine incorporation); type: cell-based; details: Plasmodium falciparum, Erythrocyte, 0.5% parasitemia (ring stage), 2% hematocrit, 48 h total incubation, read-out: PflC50
Procedure: P. falciparum Growth Inhibition Assay. The sensitivity of P. falciparum infected erythrocytes to the compound is determined in triplicate using the [^3H]hypoxanthine incorporation method with an inoculum of 0.5% parasitemia (ring stage) and 2% hematocrit. The parasites were grown in RPMI 1640, 25 mM HEPES and supplemented with […]. Plates are incubated at 37° C., 5% CO2, 5% O2, 90% N2. After 24 h of incubation, [3H]hypoxanthine is added and plates are incubated for another 24 h. After that period, plates are harvested on a glass fiber filter using a TOMTEC Cell harvester 96. Filters are dried and melt on scintillator sheets and the bound radioactivity is quantified by use of a Wallac Microbeta Trilux (Model 1450 LS-Perkin Elmer). IC50s are determined using Grafit 5 program (Grafit program; Erithacus Software, Horley, Surrey, United Kingdom).

[3] = p698 and Table 2 p699; cited from earlier work
[4] = FaSSIF (fasted state simulated intestinal fluid), fassif, Fasted state simulated intestinal fluid, read-out: FaSSIF solubility
[5] = FeSSIF (fed state simulated intestinal fluid), fessif, Fed state simulated intestinal fluid, read-out: FeSSIF solubility
[6] = PBS (phosphate buffered saline), aqueous buffer, Phosphate buffered saline, read-out: PBS solubility
[7] = SGF (simulated gastric fluid), Simulated gastric fluid, read-out: SGF solubility

Cc1[nH]c2ccccc2c1C(=O)C(C)Sc1nnc(-c2ccccc2Br)[nH]1 (stereo not drawn) [drawing 25]
solubility at 4 h [1, 4]: 37 µg/mL (≈ 83.8 µM) | solubility at 4 h [1, 5]: 181 µg/mL (≈ 410 µM) | solubility at 4 h [1, 6]: < 0.1 µg/mL | solubility at 4 h [1, 7]: < 0.1 µg/mL

C[C@@H](Sc1nc(-c2c(Cl)cncc2Cl)n[nH]1)C(=O)c1c[nH]c2ccccc12 [drawing 24]
AUCED90 (P. falciparum): 0.17 μg.h.ml-1day-1 | ED90 (P. falciparum): 2.2 mg/kg

O=C(CSc1nc(-c2ccncc2)n[nH]1)c1c[nH]c2ccccc12 [drawing 18]
IC50 [2]: > 5000 nM

C[C@@H](Sc1nc(-c2c(Cl)cncc2Cl)n[nH]1)C(=O)c1c[nH]c2ccccc12 [drawing 27]
solubility at 4 h [1, 4]: 216 µg/mL (≈ 516 µM) | solubility at 4 h [1, 5]: 578 to 675 µg/mL (≈ 1380 to 1610 µM) | solubility at 4 h [1, 6]: 169 to 289 µg/mL (≈ 404 to 691 µM) | solubility at 4 h [1, 7]: 15 to 76 µg/mL (≈ 35.9 to 182 µM)

CC(Sc1nc(-c2c(Cl)cncc2Cl)n[nH]1)C(=O)c1c[nH]c2ccccc12 (stereo not drawn) [drawing 20]
IC50 [2]: 52 nM

O=C(CSc1nc(-c2ccncc2)n[nH]1)c1c[nH]c2ccccc12 [Compound 32]
activity in the assays of Shah et al. [3]: inactive

Cc1[nH]c2ccccc2c1C(=O)C(C)Sc1nnc(-c2ccccc2Br)[nH]1 (stereo not drawn) [drawing 22]
AUCED90 (P. falciparum): < 0.05 μg.h.ml-1day-1 | ED90 (P. falciparum): 7.31 mg/kg

Cc1[nH]c2ccccc2c1C(=O)C(C)Sc1nnc(-c2ccccc2Br)[nH]1 (stereo not drawn) [drawing 19]
IC50 [2]: 44 to 60 nM

C[C@@H](Sc1nc(-c2c(Cl)cncc2Cl)n[nH]1)C(=O)c1c[nH]c2ccccc12 [drawing 21]
IC50 [2]: 19 to 53 nM

CC(Sc1nc(-c2c(Cl)cncc2Cl)n[nH]1)C(=O)c1c[nH]c2ccccc12 (stereo not drawn) [drawing 26]
solubility at 4 h [1, 4]: 168 µg/mL (≈ 402 µM)

Reference: patent US20170368034A1, “THIOTRIAZOLE COMPOUND AND ITS USE IN PARASITIC PROTOZOAL INFECTIONS” (GlaxoSmithKline Intellectual Property Development Limited, priority 2014, published 2017)
